From ChEMBL document CHEMBL3407402, “Nintedanib: from discovery to the clinic” (J Med Chem, 2015)

Key:
[1] = Oral bioavailability in Wistar rat at 50 mg/kg; type: ADME, organism-based; conditions: in vivo
[2] = Clearance in Rhesus monkey at 5 mg/kg, iv; type: ADME, organism-based, Macaca mulatta; parameters: dose 5 mg/kg, route intravenous; conditions: in vivo
[3] = Volume of distribution at steady state in Cynomolgus monkey at 5 mg/kg, iv; type: ADME, organism-based, Macaca fascicularis; parameters: dose 5 mg/kg, route intravenous; conditions: in vivo, read-out: Vdss
[4] = Antitumor activity against human H460 cells in xenograft model assessed as tumor growth inhibition ratio; type: functional, NCI-H460
[5] = Drug excretion in healthy male after 24 to 48 hrs; type: ADME, organism-based; conditions: human, in vivo, read-out: Drug excretion
[6] = Half life in Cynomolgus monkey at 5 mg/kg, iv; type: ADME, organism-based, Macaca fascicularis; parameters: dose 5 mg/kg, route intravenous; conditions: in vivo
[7] = Cmax in CD1 mouse at 50 mg/kg, po; type: ADME, organism-based; parameters: dose 50 mg/kg, route oral; conditions: in vivo
[8] = AUC in Wistar rat at 2 mg/kg, iv; type: ADME, organism-based; parameters: dose 2 mg/kg, route intravenous; conditions: plasma
[9] = Clearance in Wistar rat at 2 mg/kg, iv; type: ADME, organism-based; parameters: dose 2 mg/kg, route intravenous; conditions: in vivo
[10] = AUC in Wistar rat at 50 mg/kg, po; type: ADME, organism-based; parameters: dose 50 mg/kg, route oral; conditions: plasma
[11] = AUC in Cynomolgus monkey at 40 mg/kg, po; type: ADME, organism-based, Macaca fascicularis; parameters: dose 40 mg/kg, route oral; conditions: plasma
[12] = Mean residence time in Cynomolgus monkey at 5 mg/kg, iv; type: ADME, organism-based, Macaca fascicularis; parameters: dose 5 mg/kg, route intravenous; conditions: in vivo
[13] = Cmax in Wistar rat at 2 mg/kg, iv; type: ADME, organism-based; parameters: dose 2 mg/kg, route intravenous; conditions: in vivo
[14] = Inhibition of VEGF-stimulated HSMEC cell proliferation; type: functional; conditions: Homo sapiens
[15] = Cmax in Rhesus monkey at 40 mg/kg, po; type: ADME, organism-based, Macaca mulatta; parameters: dose 40 mg/kg, route oral; conditions: in vivo
[16] = Cmax in cynomolgus monkey at 40 mg/kg, po; type: ADME, organism-based, Macaca fascicularis; parameters: dose 40 mg/kg, route oral; conditions: in vivo
[17] = AUC in Rhesus monkey at 5 mg/kg, iv; type: ADME, organism-based, Macaca mulatta; parameters: dose 5 mg/kg, route intravenous; conditions: plasma
[18] = Clearance in Cynomolgus monkey at 5 mg/kg, iv; type: ADME, organism-based, Macaca fascicularis; parameters: dose 5 mg/kg, route intravenous; conditions: in vivo
[19] = AUC in CD1 mouse at 50 mg/kg, po; type: ADME, organism-based; parameters: dose 50 mg/kg, route oral; conditions: plasma
clinical = conditions: male, human, in vivo
Description: Terminal half life in healthy male

[20] = Half life in CD1 mouse at 50 mg/kg, po; type: ADME, organism-based; parameters: dose 50 mg/kg, route oral; conditions: in vivo
Rattus norvegicus [21] = experiment: Mean residence time in Wistar rat at 2 mg/kg, iv; type: ADME, organism-based; parameters: dose 2 mg/kg, route intravenous; conditions: in vivo
[22] = Mean residence time in CD1 mouse at 50 mg/kg, po; type: ADME, organism-based; parameters: dose 50 mg/kg, route oral; conditions: in vivo
[23] = Oral bioavailability in Cynomolgus monkey at 40 mg/kg; type: ADME, organism-based, Macaca fascicularis; conditions: in vivo
[24] = Oral bioavailability in Rhesus monkey at 40 mg/kg; type: ADME, organism-based, Macaca mulatta; conditions: in vivo
[25] = Volume of distribution at steady state in Rhesus monkey at 5 mg/kg, iv; type: ADME, organism-based, Macaca mulatta; parameters: dose 5 mg/kg, route intravenous; conditions: in vivo, read-out: Vdss
[26] = Cmax in Cynomolgus monkey at 5 mg/kg, iv; type: ADME, organism-based, Macaca fascicularis; parameters: dose 5 mg/kg, route intravenous; conditions: in vivo
[27] = AUC in Cynomolgus monkey at 5 mg/kg, iv; type: ADME, organism-based, Macaca fascicularis; parameters: dose 5 mg/kg, route intravenous; conditions: plasma
[28] = Drug excretion in healthy male via biliary system into feces over 120 hrs; type: ADME, tissue-based; conditions: human, faeces, read-out: Drug excretion
[29] = Drug excretion in healthy male urine/feces after 96 hrs; type: ADME, tissue-based; conditions: human, urine and faeces, read-out: Drug excretion
[30] = Cmax in Rhesus monkey at 5 mg/kg, iv; type: ADME, organism-based, Macaca mulatta; parameters: dose 5 mg/kg, route intravenous; conditions: in vivo
[31] = Drug excretion in healthy male urine after 72 hrs; type: ADME, tissue-based; conditions: human, read-out: Drug excretion
in vivo = conditions: rhesus monkey, iv, 5 mg/kg
Description: Half life in Rhesus monkey at 5 mg/kg, iv

[32] = Cmax in Wistar rat at 50 mg/kg, po; type: ADME, organism-based; parameters: dose 50 mg/kg, route oral; conditions: in vivo
[33] = AUC in Rhesus monkey at 40 mg/kg, po; type: ADME, organism-based, Macaca mulatta; parameters: dose 40 mg/kg, route oral; conditions: plasma
[34] = Mean residence time in Rhesus monkey at 5 mg/kg, iv; type: ADME, organism-based, Macaca mulatta; parameters: dose 5 mg/kg, route intravenous; conditions: in vivo
Rattus norvegicus [35] = experiment: Half life in Wistar rat at 2 mg/kg, iv; type: ADME, organism-based; parameters: dose 2 mg/kg, route intravenous; conditions: in vivo

## CCS(=O)(=O)O.COC(=O)c1ccc2c(c1)NC(=O)/C2=C(\Nc1ccc(N(C)C(=O)CN2CCN(C)CC2)cc1)c1ccccc1 [NINTEDANIB ESYLATE]
[1]
  bioavailability: 11.9%
[2]
  clearance: 30.2 mL/min/kg
[3]
  Vd: 8.64 L/kg
[4]
  TGI: 75%
[5]
  dose excreted: 56.3%
[6]
  half-life: 5.95 h
[7]
  Cmax: 547 ng/mL
[8]
  AUC: 181 ng·h/mL
[9]
  clearance: 202 mL/min/kg
[10]
  AUC: 375 ng·h/mL
[11]
  AUC: 2390 ng·h/mL
[12]
  MRT: 3.82 h
[13]
  Cmax: 124 ng/mL
[14]
  EC50: < 10 nM
[15]
  Cmax: 311 ng/mL
[16]
  Cmax: 175 ng/mL
[17]
  AUC: 2830 ng·h/mL
[18]
  clearance: 37.5 mL/min/kg
[19]
  AUC: 2720 ng·h/mL
clinical
  half-life: 13 h
[20]
  half-life: 5.15 h
Rattus norvegicus [21]
  MRT: 3.25 h
[22]
  MRT: 5.19 h
[23]
  bioavailability: 13.2%
[24]
  bioavailability: 23.8%
[25]
  Vd: 10.4 L/kg
[26]
  Cmax: 1300 ng/mL
[27]
  AUC: 2260 ng·h/mL
[28]
  dose excreted at 120 h: 93.4%
[29]
  dose excreted at 96 h: 92.4%
[30]
  Cmax: 1090 ng/mL
[31]
  dose excreted at 72 h: 0.7%
In vivo
  half-life: 7.09 h
[32]
  Cmax: 105 ng/mL
[33]
  AUC: 4440 ng·h/mL
[34]
  MRT: 5.7 h
Rattus norvegicus [35]
  t1/2: 3.95 h

## CC(=O)O[C@@]12CO[C@@H]1C[C@H](O)[C@@]1(C)C(=O)[C@H](O)C3=C(C)[C@@H](OC(=O)[C@H](O)[C@@H](NC(=O)OC(C)(C)C)c4ccccc4)C[C@@](O)([C@@H](OC(=O)c4ccccc4)[C@H]21)C3(C)C.O.O.O [DOCETAXEL]
[4]
  TGI: 66%
